According to the NIST ThermoML archive (doi:10.1016/j.jct.2012.10.023):

Assays:
[1] = 101.33 kPa, Liquid; for speed of sound: Sing-around technique in a fixed-path interferometer; for mass density: Vibrating tube method
[2] = xn = mol fraction of the nth substance listed; conditions: 101 kPa, Liquid; for speed of sound: Sing-around technique in a fixed-path interferometer; for mass density: Vibrating tube method

Cc1ccc(C)cc1 [1,4-dimethylbenzene]
[1]
Conditions	mass density [kg/m3]	speed of sound [m/s]
298.15 K	856.609	1309.5
308.15 K	847.881	1268.6

CCCCCCCCCO [nonan-1-ol]
[1]
Conditions	mass density [kg/m3]	speed of sound [m/s]
298.15 K	824.271	1363.1
308.15 K	817.362	1330.4

CCCCCCCCCO [nonan-1-ol] + Cc1cc(C)cc(C)c1
[2]
Conditions	mass density, 298.15 K [kg/m3]	mass density, 308.15 K [kg/m3]	speed of sound, 298.15 K [m/s]	speed of sound, 308.15 K [m/s]
x2 = 0	824.271	817.362	1363.1	1330.4
x2 = 0.0696	826.211	819.181	1360.9	1327.3
x2 = 0.1267	827.826	820.708	1358.8	1324.6
x2 = 0.195	829.792	822.576	1356	1321
x2 = 0.2375	831.043	823.768	1354	1318.6
x2 = 0.3044	833.053	825.691	1350.8	1314.8
x2 = 0.362	834.839	827.405	1347.8	1311.4
x2 = 0.4358	837.211	829.683	1344.1	1307.4
x2 = 0.5112	839.754	832.121	1340.5	1303.3
x2 = 0.5777	842.112	834.381	1337.5	1300
x2 = 0.6422	844.512	836.681	1335.2	1297.5
x2 = 0.7091	847.143	839.209	1333.3	1295.2
x2 = 0.7788	850.052	841.998	1332.4	1293.7
x2 = 0.8571	853.546	845.418	1332.4	1293.1
x2 = 0.9234	856.701	848.558	1333.4	1293.8

CCc1ccccc1 [ethylbenzene] + CCCCCCCCCO
[2], x1 = 1
Conditions	mass density [kg/m3]	speed of sound [m/s]
298.15 K	862.433	1318.6
308.15 K	853.607	1277.5

CCCCCCCCCO [nonan-1-ol] + CCc1ccccc1
[2]
Conditions	mass density, 298.15 K [kg/m3]	mass density, 308.15 K [kg/m3]	speed of sound, 298.15 K [m/s]	speed of sound, 308.15 K [m/s]
x2 = 0	824.271	817.362	1363.1	1330.4
x2 = 0.0611	825.837	818.832	1359.7	1326.2
x2 = 0.1285	827.606	820.495	1355.8	1321.2
x2 = 0.1791	828.979	821.784	1352.3	1317.2
x2 = 0.2466	830.861	823.552	1347.6	1312
x2 = 0.3151	832.863	825.431	1342.6	1306.5
x2 = 0.3717	834.594	827.054	1338.4	1301.9
x2 = 0.4254	836.312	828.667	1334.5	1297.6
x2 = 0.5007	838.858	831.059	1329.2	1291.8
x2 = 0.5756	841.598	833.621	1324.6	1286.4
x2 = 0.6411	844.187	836.032	1321	1282.3
x2 = 0.7122	847.192	838.876	1318	1278.8
x2 = 0.7798	850.293	841.821	1316	1276.2
x2 = 0.8557	854.062	845.455	1315.2	1275
x2 = 0.9341	858.405	849.669	1316.3	1274.9

Cc1cccc(C)c1 [1,3-dimethylbenzene]
[1]
Conditions	mass density [kg/m3]	speed of sound [m/s]
298.15 K	859.867	1320.1
308.15 K	851.236	1279.1

Cc1cc(C)cc(C)c1 [1,3,5-trimethylbenzene] + CCCCCCCCCO
[2], x1 = 1
Conditions	mass density [kg/m3]	speed of sound [m/s]
298.15 K	860.862	1336
308.15 K	852.659	1296.3

Cc1ccc(C)cc1 [1,4-dimethylbenzene] + CCCCCCCCCO
[2], x1 = 1
Conditions	mass density [kg/m3]	speed of sound [m/s]
298.15 K	856.609	1309.5
308.15 K	847.881	1268.6

Cc1ccccc1C [1,2-dimethylbenzene]
[1]
Conditions	mass density [kg/m3]	speed of sound [m/s]
298.15 K	875.363	1348.2
308.15 K	866.507	1308.2

CCc1ccccc1 [ethylbenzene]
[1]
Conditions	mass density [kg/m3]	speed of sound [m/s]
298.15 K	862.433	1318.6
308.15 K	853.607	1277.5

Cc1cc(C)cc(C)c1 [1,3,5-trimethylbenzene]
[1]
Conditions	mass density [kg/m3]	speed of sound [m/s]
298.15 K	860.862	1336
308.15 K	852.659	1296.3

Cc1cccc(C)c1 [1,3-dimethylbenzene] + CCCCCCCCCO
[2], x1 = 1
Conditions	mass density [kg/m3]	speed of sound [m/s]
298.15 K	859.867	1320.1
308.15 K	851.236	1279.1

Cc1ccccc1C [1,2-dimethylbenzene] + CCCCCCCCCO
[2], x1 = 1
Conditions	mass density [kg/m3]	speed of sound [m/s]
298.15 K	875.363	1348.2
308.15 K	866.507	1308.2

CCCCCCCCCO [nonan-1-ol] + Cc1cccc(C)c1
[2]
Conditions	mass density, 298.15 K [kg/m3]	mass density, 308.15 K [kg/m3]	speed of sound, 298.15 K [m/s]	speed of sound, 308.15 K [m/s]
x2 = 0	824.271	817.362	1363.1	1330.4
x2 = 0.066	826.04	819.011	1360.2	1326.5
x2 = 0.127	827.699	820.562	1357	1322.5
x2 = 0.1739	828.993	821.778	1354.2	1319.2
x2 = 0.2461	831.027	823.695	1349.4	1313.9
x2 = 0.2913	832.335	824.932	1346.4	1310.4
x2 = 0.3635	834.482	826.964	1341.4	1304.8
x2 = 0.4422	836.925	829.276	1335.9	1298.9
x2 = 0.4872	838.383	830.658	1332.9	1295.5
x2 = 0.5648	841.002	833.142	1328.2	1290.1
x2 = 0.6251	843.155	835.189	1324.7	1286.3
x2 = 0.6873	845.49	837.419	1321.9	1283
x2 = 0.7713	848.867	840.659	1319	1279.5
x2 = 0.8508	852.346	843.997	1317.8	1277.7
x2 = 0.9284	856.073	847.58	1318	1277.6
